Assays:
Type in all cases: in vivo
[1] = tested on: Amaranthus retoflexus (AMARE); test: Pre-emergence Test (glasshouse, percentage damage to the plant); conditions: 1000 g/ha unless otherwise stated; for percentage damage to the plant, AMARE: five-point scale; for percentage damage to the plant, AMARE (five-point scale): Amaranthus retoflexus
[2] = tested on: Abutilon theophrasti (ABUTH); test: as above; conditions: 1000 g/ha unless otherwise stated; for percentage damage to the plant, ABUTH: five-point scale; for percentage damage to the plant, ABUTH (five-point scale): Abutilon theophrasti
[3] = tested on: Zea mays (ZEAMX); test: Post-emergence Test (glasshouse, percentage damage to the plant); conditions: 1000 g/ha unless otherwise stated, evaluated after 13 days; for Post-emergence Test ZEAMX, percentage damage to the plant (five-point scale): post-emergence spray; for ZEAMX, percentage damage caused to the plant (five-point scale): post-emergence
How it was run: (§1)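 Damage was rated 13 days after treatment and expressed on a five-point scale: 5=81-100%, 4=61-80%, 3=41-60%, 2=21-40%, 1=0-20%. Spray was applied at 1000 g/ha unless otherwise stated, from acetone/water (50:50) with 0.5% Tween 20, to sown pots.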

[4] = tested on: Ipomoea hederacea (IPOHE); test: as above; conditions: 1000 g/ha unless otherwise stated, evaluated after 13 days; for Post-emergence Test IPOHE, percentage damage to the plant (five-point scale): post-emergence spray; for IPOHE, percentage damage caused to the plant (five-point scale): post-emergence
How it was run: as §1

[5] = tested on: Echinochloa crus-galli (ECHCG); test: as above; conditions: post-emergence spray, 1000 g/ha unless otherwise stated, evaluated after 13 days
How it was run: (§2)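 Seeds sown in standard soil in a glasshouse (24/16 °C day/night, 14 h light, 65% humidity), then sprayed with an aqueous solution of the compound formulated in acetone/water 50:50 with 0.5% Tween 20 at 1000 g/ha unless otherwise stated. Percentage damage was scored after 13 days on a five-point scale (5=81-100%; 1=0-20%).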

[6] = tested on: Setaria faberi (SETFA); test: as above; conditions: 1000 g/ha unless otherwise stated, evaluated after 13 days; for Post-emergence Test SETFA, percentage damage to the plant (five-point scale): post-emergence spray; for SETFA, percentage damage caused to the plant (five-point scale): post-emergence
How it was run: as §1

[7] = tested on: Abutilon theophrasti (ABUTH); test: as above; conditions: 1000 g/ha unless otherwise stated, evaluated after 13 days; for Post-emergence Test ABUTH, percentage damage to the plant (five-point scale): post-emergence spray; for ABUTH, percentage damage caused to the plant (five-point scale): post-emergence
How it was run: as §2

[8] = tested on: Amaranthus retoflexus (AMARE); test: as above; conditions: 1000 g/ha unless otherwise stated, evaluated after 13 days; for Post-emergence Test AMARE, percentage damage to the plant (five-point scale): post-emergence spray; for AMARE, percentage damage caused to the plant (five-point scale): post-emergence
How it was run: as §2

[9] = tested on: Zea mays (ZEAMX); test: Pre-emergence Test (glasshouse, percentage damage to the plant); conditions: 1000 g/ha unless otherwise stated; for percentage damage to the plant, ZEAMX: five-point scale; for percentage damage to the plant, ZEAMX (five-point scale): Zea mays
[10] = tested on: Ipomoea hederacea (IPOHE); test: as above; conditions: 1000 g/ha unless otherwise stated; for percentage damage to the plant, IPOHE: five-point scale; for percentage damage to the plant, IPOHE (five-point scale): Ipomoea hederacea
[11] = tested on: Setaria faberi (SETFA); test: as above; conditions: 1000 g/ha unless otherwise stated; for percentage damage to the plant, SETFA: five-point scale; for percentage damage to the plant, SETFA (five-point scale): Setaria faberi
[12] = tested on: Echinochloa crus-galli (ECHCG); test: as above; conditions: 1000 g/ha unless otherwise stated; for percentage damage to the plant, ECHCG: five-point scale; for percentage damage to the plant, ECHCG (five-point scale): Echinochloa crus-galli

Row | SMILES | percentage damage to the plant, AMARE [1] | percentage damage to the plant, ABUTH [2] | Post-emergence Test ZEAMX, percentage damage to the plant (five-point scale) [3] | Post-emergence Test IPOHE, percentage damage to the plant (five-point scale) [4] | Post-emergence Test SETFA, percentage damage to the plant (five-point scale) [6] | Post-emergence Test AMARE, percentage damage to the plant (five-point scale) [8] | percentage damage to the plant, ZEAMX [9] | percentage damage to the plant, IPOHE [10] | percentage damage to the plant, SETFA [11] | percentage damage to the plant, ECHCG [12] | percentage damage to the plant, AMARE (five-point scale) [1] | ZEAMX, percentage damage caused to the plant (five-point scale) [3] | IPOHE, percentage damage caused to the plant (five-point scale) [4] | SETFA, percentage damage caused to the plant (five-point scale) [6] | ABUTH, percentage damage caused to the plant (five-point scale) [7] | AMARE, percentage damage caused to the plant (five-point scale) [8] | percentage damage to the plant, ZEAMX (five-point scale) [9] | percentage damage to the plant, IPOHE (five-point scale) [10] | percentage damage to the plant, SETFA (five-point scale) [11] | percentage damage to the plant, ECHCG (five-point scale) [12] | other results
1 | CCn1c(C)c(-c2cccs2)c(=O)c(C(=O)O)c1-c1ccc(Cl)cc1 [Compound 165, 2-(4-chlorophenyl)-1-ethyl-6-methyl-4-oxo-5-(2-thienyl)pyridine-3-carboxylic acid] | 1 (1=0-20%) | 1 (1=0-20%) | 1 (1=0-20%) | 2 (2=21-40%) | 1 (1=0-20%) | 0 | 0 | 1 (1=0-20%) | 0 | 0 | – | – | – | – | – | – | – | – | – | – | Post-emergence Test ECHCG, percentage damage to the plant (five-point scale) [5]: 0; Post-emergence Test ABUTH, percentage damage to the plant (five-point scale) [7]: 2 (2=21-40%)
2 | CCn1c(C)c(-c2ccc(Cl)cc2)c(=O)c(C(=O)O)c1-c1ccc(Br)cc1F [Compound 133, 2-(4-bromo-2-fluoro-phenyl)-5-(4-chlorophenyl)-1-ethyl-6-methyl-4-oxo-pyridine-3-carboxylic acid] | 2 (2=21-40%) | 3 (3=41-60%) | 1 (1=0-20%) | 3 (3=41-60%) | 1 (1=0-20%) | 4 (4=61-80%) | 2 (2=21-40%) | 2 (2=21-40%) | 5 (5=81-100%) | 4 (4=61-80%) | – | – | – | – | – | – | – | – | – | – | Post-emergence Test ABUTH, percentage damage to the plant (five-point scale) [7]: 2 (2=21-40%)
3 | CCn1c(C)c(-c2ccc(F)cc2OC)c(=O)c(C(=O)OC)c1-c1ccc(Cl)c(Cl)c1 [Compound 164, methyl 2-(3,4-dichlorophenyl)-1-ethyl-5-(4-fluoro-2-methoxy-phenyl)-6-methyl-4-oxo-pyridine-3-carboxylate] | 0 | – | 1 (1=0-20%) | 1 (1=0-20%) | 1 (1=0-20%) | 1 (1=0-20%) | 0 | 0 | 0 | 0 | – | – | – | – | – | – | – | – | – | – | Post-emergence Test ECHCG, percentage damage to the plant (five-point scale) [5]: 0; Post-emergence Test ABUTH, percentage damage to the plant (five-point scale) [7]: 1 (1=0-20%)
4 | CCn1c(-c2ccc(Cl)c(Cl)c2)c(C(=O)OC)c(=O)c(-c2ccc(Cl)cc2)c1C(F)F [Compound 205, methyl 5-(4-chlorophenyl)-2-(3,4-dichlorophenyl)-6-(difluoromethyl)-1-ethyl-4-oxo-pyridine-3-carboxylate] | – | – | – | – | – | – | – | – | – | – | 0 | 0 | 1 (1=0-20%) | 0 | 0 | 1 (1=0-20%) | 0 | 0 | 0 | 0 | percentage damage to the plant, ABUTH (five-point scale) [2]: 0
5 | CCn1c(-c2ccc(Cl)c(Cl)c2)c(C(=O)O)c(=O)c(-c2ccc(Cl)cc2)c1C(F)F [Compound 204, 5-(4-chlorophenyl)-2-(3,4-dichlorophenyl)-6-(difluoromethyl)-1-ethyl-4-oxo-pyridine-3-carboxylic acid] | – | – | – | – | – | – | – | – | – | – | 5 (5=81-100%) | 1 (1=0-20%) | 2 (2=21-40%) | 3 (3=41-60%) | 5 (5=81-100%) | 5 (5=81-100%) | 0 | 0 | 0 | 0 | percentage damage to the plant, ABUTH (five-point scale) [2]: 2 (2=21-40%)
6 | CCn1c(CCOC)c(-c2ccc(Cl)cc2)c(=O)c(C(=O)OC)c1-c1ccc(Cl)c(Cl)c1 [Compound 202, methyl 5-(4-chlorophenyl)-2-(3,4-dichlorophenyl)-1-ethyl-6-(2-methoxyethyl)-4-oxo-pyridine-3-carboxylate] | – | – | – | – | – | – | – | – | – | – | 0 | 1 (1=0-20%) | 1 (1=0-20%) | 0 | 0 | 0 | 0 | 0 | 0 | 0 | percentage damage to the plant, ABUTH (five-point scale) [2]: 0
7 | CCn1c(C)c(-c2cc(Cl)c(F)c(Cl)c2)c(=O)c(C(=O)O)c1-c1ccc(Cl)cc1 [Compound 178, 2-(4-chlorophenyl)-5-(3,5-dichloro-4-fluoro-phenyl)-1-ethyl-6-methyl-4-oxo-pyridine-3-carboxylic acid] | 0 | 0 | 1 (1=0-20%) | 1 (1=0-20%) | 0 | 1 (1=0-20%) | 0 | 0 | 0 | 0 | – | – | – | – | – | – | – | – | – | – | Post-emergence Test ECHCG, percentage damage to the plant (five-point scale) [5]: 1 (1=0-20%)
8 | CCn1c(C)c(-c2ccc(Cl)c(F)c2)c(=O)c(C(=O)O)c1-c1ccc(Cl)cc1 [Compound 201, 5-(4-chloro-3-fluoro-phenyl)-2-(4-chlorophenyl)-1-ethyl-6-methyl-4-oxo-pyridine-3-carboxylic acid] | – | – | – | – | – | – | – | – | – | – | 1 (1=0-20%) | 2 (2=21-40%) | 1 (1=0-20%) | 3 (3=41-60%) | 4 (4=61-80%) | 2 (2=21-40%) | 0 | 0 | 3 (3=41-60%) | 3 (3=41-60%) | percentage damage to the plant, ABUTH (five-point scale) [2]: 2 (2=21-40%)
9 | CCn1c(C)c(-c2ccc(F)cc2F)c(=O)c(C(=O)O)c1-c1ccc(Cl)cc1 [Compound 192, 2-(4-chlorophenyl)-5-(2,4-difluorophenyl)-1-ethyl-6-methyl-4-oxo-pyridine-3-carboxylic acid] | 1 (1=0-20%) | 2 (2=21-40%) | 2 (2=21-40%) | 2 (2=21-40%) | 4 (4=61-80%) | 2 (2=21-40%) | 0 | 1 (1=0-20%) | 2 (2=21-40%) | 2 (2=21-40%) | – | – | – | – | – | – | – | – | – | – | Post-emergence Test ABUTH, percentage damage to the plant (five-point scale) [7]: 4 (4=61-80%)
10 | CCn1c(CCOC)c(-c2ccc(Cl)cc2)c(=O)c(C(=O)O)c1-c1ccc(Cl)c(Cl)c1 [Compound 203, 5-(4-chlorophenyl)-2-(3,4-dichlorophenyl)-1-ethyl-6-(2-methoxyethyl)-4-oxo-pyridine-3-carboxylic acid] | – | – | – | – | – | – | – | – | – | – | 0 | 1 (1=0-20%) | 0 | 0 | 0 | 0 | 0 | 0 | 0 | 1 (1=0-20%) | –
